{"source": "ChEMBL document CHEMBL5465560", "about": "“Selectivity Literature for EUbOPEN Chemogenomic Library” (2024)", "key": {"[1]": {"target": "T1, Serine/threonine-protein kinase D3 (Homo sapiens) (UniProt O94806)", "T1 sequence (whole entry)": "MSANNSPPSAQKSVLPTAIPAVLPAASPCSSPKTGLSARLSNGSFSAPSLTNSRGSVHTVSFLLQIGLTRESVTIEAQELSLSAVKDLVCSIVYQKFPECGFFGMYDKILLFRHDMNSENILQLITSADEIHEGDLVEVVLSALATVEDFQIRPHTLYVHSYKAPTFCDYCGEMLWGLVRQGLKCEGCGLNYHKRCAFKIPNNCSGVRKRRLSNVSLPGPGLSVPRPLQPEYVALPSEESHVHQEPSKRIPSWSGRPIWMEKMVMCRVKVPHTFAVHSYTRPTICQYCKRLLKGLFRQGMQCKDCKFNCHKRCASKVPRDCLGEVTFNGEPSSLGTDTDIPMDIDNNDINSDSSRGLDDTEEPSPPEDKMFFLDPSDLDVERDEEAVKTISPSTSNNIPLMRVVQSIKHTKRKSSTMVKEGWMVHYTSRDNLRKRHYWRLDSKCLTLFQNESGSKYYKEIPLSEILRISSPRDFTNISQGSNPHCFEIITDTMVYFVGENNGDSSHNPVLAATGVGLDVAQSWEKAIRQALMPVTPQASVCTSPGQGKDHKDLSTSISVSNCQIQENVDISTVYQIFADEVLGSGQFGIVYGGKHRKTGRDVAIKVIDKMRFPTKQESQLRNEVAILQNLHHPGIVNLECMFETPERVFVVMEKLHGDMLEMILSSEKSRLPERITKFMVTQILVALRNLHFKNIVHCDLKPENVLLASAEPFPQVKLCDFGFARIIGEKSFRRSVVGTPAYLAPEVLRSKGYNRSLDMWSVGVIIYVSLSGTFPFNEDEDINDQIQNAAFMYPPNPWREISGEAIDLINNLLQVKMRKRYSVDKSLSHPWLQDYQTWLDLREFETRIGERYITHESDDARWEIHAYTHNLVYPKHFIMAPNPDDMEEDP", "experiment": "Selectivity interaction (KinomeScan (DiscoverX)) EUB0000092b PRKD3", "settings": "at 10 µM"}, "[2]": {"target": "T2, Tyrosine-protein kinase JAK3 (Homo sapiens) (UniProt P52333)", "T2 sequence (whole entry)": "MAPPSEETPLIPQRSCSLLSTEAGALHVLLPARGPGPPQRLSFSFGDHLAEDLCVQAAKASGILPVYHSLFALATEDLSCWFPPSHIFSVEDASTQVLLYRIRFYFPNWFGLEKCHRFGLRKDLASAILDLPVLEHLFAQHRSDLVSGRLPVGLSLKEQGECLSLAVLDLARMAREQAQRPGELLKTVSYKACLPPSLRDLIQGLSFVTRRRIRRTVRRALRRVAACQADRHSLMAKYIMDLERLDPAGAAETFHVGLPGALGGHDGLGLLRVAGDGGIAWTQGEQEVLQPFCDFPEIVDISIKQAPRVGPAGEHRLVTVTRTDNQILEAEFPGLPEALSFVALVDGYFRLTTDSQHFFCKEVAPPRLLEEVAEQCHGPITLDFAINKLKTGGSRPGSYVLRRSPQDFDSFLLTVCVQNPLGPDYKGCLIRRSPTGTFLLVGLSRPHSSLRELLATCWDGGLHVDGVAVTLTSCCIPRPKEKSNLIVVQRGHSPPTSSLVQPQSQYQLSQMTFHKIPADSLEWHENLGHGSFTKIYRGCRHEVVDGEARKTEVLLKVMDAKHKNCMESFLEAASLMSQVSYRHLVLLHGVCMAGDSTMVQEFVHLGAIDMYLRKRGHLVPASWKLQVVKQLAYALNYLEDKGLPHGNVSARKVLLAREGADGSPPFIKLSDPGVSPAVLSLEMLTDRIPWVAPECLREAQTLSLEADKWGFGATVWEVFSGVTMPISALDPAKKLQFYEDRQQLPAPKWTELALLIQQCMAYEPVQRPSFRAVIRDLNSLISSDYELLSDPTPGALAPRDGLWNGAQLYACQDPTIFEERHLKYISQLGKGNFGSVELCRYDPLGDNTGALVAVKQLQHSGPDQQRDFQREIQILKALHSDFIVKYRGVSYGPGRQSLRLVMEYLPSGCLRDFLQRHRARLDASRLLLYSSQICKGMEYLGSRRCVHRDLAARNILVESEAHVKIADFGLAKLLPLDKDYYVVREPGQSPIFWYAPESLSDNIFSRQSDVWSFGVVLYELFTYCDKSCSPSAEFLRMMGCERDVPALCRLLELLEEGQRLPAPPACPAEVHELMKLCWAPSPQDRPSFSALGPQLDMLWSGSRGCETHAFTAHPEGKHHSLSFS", "experiment": "Selectivity interaction (KinomeScan (DiscoverX)) EUB0000045b JAK3"}, "[3]": {"target": "Protein kinase C eta type (Homo sapiens) (UniProt P24723)", "sequence (P24723 whole entry)": "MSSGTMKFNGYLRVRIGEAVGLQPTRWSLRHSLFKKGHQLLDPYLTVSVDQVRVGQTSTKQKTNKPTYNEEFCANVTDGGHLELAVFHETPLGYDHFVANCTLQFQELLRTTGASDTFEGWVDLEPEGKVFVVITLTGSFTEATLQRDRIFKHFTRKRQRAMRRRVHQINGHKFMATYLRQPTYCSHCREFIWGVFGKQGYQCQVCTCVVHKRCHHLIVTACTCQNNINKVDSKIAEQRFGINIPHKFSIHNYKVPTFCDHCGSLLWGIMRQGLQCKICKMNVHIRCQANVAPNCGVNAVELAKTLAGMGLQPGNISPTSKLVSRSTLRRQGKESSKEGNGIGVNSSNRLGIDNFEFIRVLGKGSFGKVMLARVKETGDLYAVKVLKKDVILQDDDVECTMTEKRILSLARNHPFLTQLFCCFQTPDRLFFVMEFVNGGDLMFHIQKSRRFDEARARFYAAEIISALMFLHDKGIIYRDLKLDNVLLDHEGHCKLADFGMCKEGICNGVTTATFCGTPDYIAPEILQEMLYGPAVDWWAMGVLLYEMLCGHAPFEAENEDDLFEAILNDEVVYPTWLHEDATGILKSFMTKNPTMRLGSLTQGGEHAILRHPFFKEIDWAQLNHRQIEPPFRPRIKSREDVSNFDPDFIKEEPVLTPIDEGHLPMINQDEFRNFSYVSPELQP", "experiment": "Selectivity interaction (KinomeScan (DiscoverX)) EUB0000695a PRKCH", "settings": "at 100 nM"}}, "data": [{"compound": "CCC(=O)N1CCN(c2ccc(-n3c(=O)ccc4cnc5ccc(-c6cnc7ccccc7c6)cc5c43)cc2C(F)(F)F)CC1", "values": [{"measurement": "% of control", "setting": "[1]", "value": 100, "unit": "%"}]}, {"compound": "C=CC(=O)Nc1cc(-n2c(=O)ccc3cnc4ccc(-c5ccc(NS(C)(=O)=O)cc5)cc4c32)ccc1C", "values": [{"measurement": "% of control", "setting": "[2]; at 1 µM", "value": 6.6, "unit": "%"}, {"measurement": "% of control", "setting": "[2]; at 10 µM", "value": 0.6, "unit": "%"}]}, {"compound": "Cc1cc(F)c(C(=O)Nc2cccc(-c3nncn3C(C)C)n2)cc1-n1cnc(C2CC2)c1", "values": [{"measurement": "% of control", "setting": "[3]", "value": 91, "unit": "%"}]}]}
